# Laboratory results as given in US20250382297A1, “INHIBITORS OF FGFR2 AND FGFR3 AND USES THEREOF” (Insilico Medicine IP Limited, priority 2022, published 2025).
# Like-named read-outs stand apart in the source and are kept apart here.
# What was measured:
# FGFR1 = FGFR1 (Homo sapiens (Human), UniProt P11362); assay: FGFR biochemical assay (LanthaScreen TR-FRET kinase assay), FGFR1
# Procedure: (§1) Convert Ratio values to percent inhibition values (Percent inhibition=(max−sample Ratio)/(max−min)*100) where “min” means the Ratio of no enzyme control and “max” means the Ratio of DMSO control. • Data are analyzed and curve fitting is performed by XLFit Excel add-in version 5.4.0.8. The IC50 calculation equation is: Y=Bottom+(Top-Bottom)/(1+ (IC50/X)^HillSlope.
# FGFR2 = FGFR2 (Homo sapiens (Human), UniProt P21802); assay: FGFR biochemical assay (LanthaScreen TR-FRET kinase assay), FGFR2
# Procedure: as §1
# FGFR3 = FGFR3 (Homo sapiens (Human), UniProt P22607); assay: FGFR biochemical assay (LanthaScreen TR-FRET kinase assay), FGFR3
# Procedure: as §1
# FGFR4 = FGFR4 (Homo sapiens (Human), UniProt P22455); assay: FGFR biochemical assay (LanthaScreen TR-FRET kinase assay), FGFR4
# Procedure: as §1
# [1] = read-out: FGFR2 IC50, incubation with enzyme at room temperature for 10 minutes before substrate, ATP 22 μM, FGFR2 0.01 nM
# [2] = read-out: FGFR2 IC50, * incubation at room temperature for 60 minutes before addition of substrate solution, ATP 22 μM, FGFR2 0.01 nM
# [3] = read-out: FGFR3 IC50, * incubation at room temperature for 60 minutes before addition of substrate solution, ATP 35 μM, FGFR3 0.1 nM
# [4] = read-out: FGFR1 IC50, * incubation at room temperature for 60 minutes before addition of substrate solution, ATP 28 μM, FGFR1 0.01 nM
# Chain of FGFR1 (P11362 22-822): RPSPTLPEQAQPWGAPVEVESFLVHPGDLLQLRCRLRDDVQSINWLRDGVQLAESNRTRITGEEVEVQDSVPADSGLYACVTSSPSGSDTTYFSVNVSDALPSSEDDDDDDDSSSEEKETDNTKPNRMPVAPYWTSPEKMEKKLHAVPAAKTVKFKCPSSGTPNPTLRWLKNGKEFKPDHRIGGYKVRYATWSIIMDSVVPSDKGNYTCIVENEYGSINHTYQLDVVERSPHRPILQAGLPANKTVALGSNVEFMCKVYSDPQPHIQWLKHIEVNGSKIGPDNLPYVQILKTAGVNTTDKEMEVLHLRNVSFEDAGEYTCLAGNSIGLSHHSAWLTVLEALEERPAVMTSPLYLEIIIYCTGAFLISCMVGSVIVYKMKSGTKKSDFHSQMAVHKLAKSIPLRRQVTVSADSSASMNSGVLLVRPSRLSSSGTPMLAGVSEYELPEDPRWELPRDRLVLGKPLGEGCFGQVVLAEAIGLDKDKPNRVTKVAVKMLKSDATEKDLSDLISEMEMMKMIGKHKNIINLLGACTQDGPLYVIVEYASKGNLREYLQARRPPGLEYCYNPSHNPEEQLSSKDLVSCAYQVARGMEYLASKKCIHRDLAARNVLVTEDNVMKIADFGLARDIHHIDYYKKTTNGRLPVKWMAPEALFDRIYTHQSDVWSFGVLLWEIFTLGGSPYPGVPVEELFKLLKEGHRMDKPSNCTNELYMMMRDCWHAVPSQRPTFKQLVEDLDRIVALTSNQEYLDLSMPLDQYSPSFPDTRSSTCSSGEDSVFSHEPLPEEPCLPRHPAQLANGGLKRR
# Chain of FGFR3 (P22607 23-806): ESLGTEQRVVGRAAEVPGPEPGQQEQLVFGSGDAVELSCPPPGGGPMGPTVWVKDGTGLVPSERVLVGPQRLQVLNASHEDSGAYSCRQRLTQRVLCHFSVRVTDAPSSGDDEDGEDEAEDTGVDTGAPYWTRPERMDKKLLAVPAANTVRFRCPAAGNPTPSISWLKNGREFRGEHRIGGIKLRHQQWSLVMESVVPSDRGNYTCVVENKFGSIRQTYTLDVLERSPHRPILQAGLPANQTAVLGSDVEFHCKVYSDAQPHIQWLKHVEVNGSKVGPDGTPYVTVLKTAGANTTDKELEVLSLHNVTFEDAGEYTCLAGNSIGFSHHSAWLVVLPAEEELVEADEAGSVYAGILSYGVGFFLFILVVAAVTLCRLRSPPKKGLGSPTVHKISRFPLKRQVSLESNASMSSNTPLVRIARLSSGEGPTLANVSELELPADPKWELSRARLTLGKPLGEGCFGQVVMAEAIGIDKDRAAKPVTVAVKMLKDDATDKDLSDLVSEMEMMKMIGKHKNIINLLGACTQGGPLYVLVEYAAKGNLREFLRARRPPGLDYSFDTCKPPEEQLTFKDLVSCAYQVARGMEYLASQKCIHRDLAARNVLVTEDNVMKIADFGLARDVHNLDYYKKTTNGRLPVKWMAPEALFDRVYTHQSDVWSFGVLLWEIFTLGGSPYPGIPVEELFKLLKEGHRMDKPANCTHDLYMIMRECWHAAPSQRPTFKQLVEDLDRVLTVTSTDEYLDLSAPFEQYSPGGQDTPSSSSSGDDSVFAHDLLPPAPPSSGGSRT
# Chain of FGFR2 (P21802 22-821): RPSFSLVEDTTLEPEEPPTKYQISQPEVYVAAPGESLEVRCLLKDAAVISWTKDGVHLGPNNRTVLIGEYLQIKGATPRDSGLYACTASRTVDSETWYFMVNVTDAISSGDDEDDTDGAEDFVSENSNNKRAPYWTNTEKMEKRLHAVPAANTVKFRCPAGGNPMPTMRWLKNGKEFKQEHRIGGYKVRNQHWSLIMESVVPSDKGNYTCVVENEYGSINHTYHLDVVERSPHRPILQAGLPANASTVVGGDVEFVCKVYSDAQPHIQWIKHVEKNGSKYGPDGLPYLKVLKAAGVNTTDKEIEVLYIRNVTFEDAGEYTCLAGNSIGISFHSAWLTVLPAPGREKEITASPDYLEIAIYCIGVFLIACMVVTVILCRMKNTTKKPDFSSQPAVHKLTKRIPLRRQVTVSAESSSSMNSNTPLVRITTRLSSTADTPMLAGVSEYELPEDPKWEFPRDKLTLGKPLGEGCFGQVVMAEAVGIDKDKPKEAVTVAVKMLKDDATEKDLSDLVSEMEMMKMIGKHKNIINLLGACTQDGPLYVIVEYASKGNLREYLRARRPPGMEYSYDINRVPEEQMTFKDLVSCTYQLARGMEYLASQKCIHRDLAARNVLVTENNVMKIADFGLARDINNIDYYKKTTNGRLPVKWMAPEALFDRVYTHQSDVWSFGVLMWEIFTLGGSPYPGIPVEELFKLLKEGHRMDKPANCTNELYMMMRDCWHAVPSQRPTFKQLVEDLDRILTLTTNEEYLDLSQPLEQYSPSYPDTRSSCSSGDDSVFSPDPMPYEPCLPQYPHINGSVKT
# Chain of FGFR4 (P22455 22-802): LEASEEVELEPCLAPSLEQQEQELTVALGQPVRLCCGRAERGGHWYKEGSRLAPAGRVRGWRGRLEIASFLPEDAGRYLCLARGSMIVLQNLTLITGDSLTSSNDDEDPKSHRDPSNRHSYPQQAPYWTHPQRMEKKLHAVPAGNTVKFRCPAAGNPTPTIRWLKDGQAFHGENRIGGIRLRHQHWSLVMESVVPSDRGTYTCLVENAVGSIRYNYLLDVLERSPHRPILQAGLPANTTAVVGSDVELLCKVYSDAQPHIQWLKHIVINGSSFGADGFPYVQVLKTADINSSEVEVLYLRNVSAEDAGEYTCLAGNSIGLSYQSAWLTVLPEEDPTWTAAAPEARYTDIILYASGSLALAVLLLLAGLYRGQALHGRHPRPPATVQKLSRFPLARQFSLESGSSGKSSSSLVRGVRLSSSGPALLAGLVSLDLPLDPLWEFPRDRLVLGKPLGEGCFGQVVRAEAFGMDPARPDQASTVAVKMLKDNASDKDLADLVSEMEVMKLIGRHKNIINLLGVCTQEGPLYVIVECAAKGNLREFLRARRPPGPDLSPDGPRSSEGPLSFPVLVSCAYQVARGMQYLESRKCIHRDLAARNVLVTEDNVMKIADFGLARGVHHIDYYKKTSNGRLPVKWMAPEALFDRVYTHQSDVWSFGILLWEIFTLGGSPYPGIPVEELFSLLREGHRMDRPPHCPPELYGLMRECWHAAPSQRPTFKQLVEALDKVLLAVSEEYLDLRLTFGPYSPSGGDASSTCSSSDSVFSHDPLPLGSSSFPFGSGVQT
SMILES,IC50 (FGFR1),IC50 (FGFR2; [1]),IC50 (FGFR3),IC50 (FGFR4),IC50 (FGFR2),"IC50 (FGFR4; read-out: FGFR4 IC50, incubation with enzyme at room temperature for 10 minutes before substrate, ATP 238 μM, FGFR4 1 nM)",IC50 (FGFR2; [2]),IC50 (FGFR3; [3]),IC50 (FGFR1; [4])
"C=CC(=O)Nc1ccc(-c2c(-c3ccc(Oc4cccc(C)n4)cc3)c(C(N)=O)c3cncc(C)n23)cc1 [Example 5, 6-(4-acrylamidophenyl)-4-methyl-7-(4-((6-methylpyridin-2-yl)oxy)phenyl)pyrrolo[1,2-a]pyrazine-8-carboxamide]",100 to 1000 nM,< 10 nM,10 to 100 nM,100 to 1000 nM,–,–,–,–,–
"C=CC(=O)Nc1ccc(-c2c(-c3ccc(Oc4cccc(C)n4)cc3)c(C(N)=O)c3cnc(C)cn23)cc1 [Example 7, 6-(4-acrylamidophenyl)-3-methyl-7-(4-((6-methylpyridin-2-yl)oxy)phenyl)pyrrolo[1,2-a]pyrazine-8-carboxamide]",100 to 1000 nM,< 10 nM,10 to 100 nM,100 to 1000 nM,–,–,–,–,–
"C=CC(=O)Nc1ccc(-c2c(-c3ccc(Oc4cccc(C)n4)cc3)c(C(N)=O)c3cnc(CO)cn23)cc1 [Example 11, 6-(4-acrylamidophenyl)-3-(hydroxymethyl)-7-(4-((6-methylpyridin-2-yl)oxy)phenyl)pyrrolo[1,2-a]pyrazine-8-carboxamide]",100 to 1000 nM,< 10 nM,10 to 100 nM,100 to 1000 nM,–,–,–,–,–
"C=CC(=O)Nc1ccc(-c2c(-c3ccc(Oc4cccc(C)n4)cc3)c(C(N)=O)c3n2CCN(C)C3)cc1 [Example 13, 6-(4-acrylamidophenyl)-2-methyl-7-(4-((6-methylpyridin-2-yl)oxy)phenyl)-1,2,3,4-tetrahydropyrrolo[1,2-a]pyrazine-8-carboxamide]",100 to 1000 nM,–,100 to 1000 nM,–,10 to 100 nM,> 1000 nM,–,–,–
"C=C(F)C(=O)N1CCc2cc(-c3c(-c4ccc(Oc5nccc(C)n5)c(F)c4)c(C(N)=O)c4cnc(C)cn34)c(C)cc21 [Example 97, 7-(3-fluoro-4-((4-methylpyrimidin-2-yl)oxy)phenyl)-6-(1-(2-fluoroacryloyl)-6-methylindolin-5-yl)-3-methylpyrrolo[1,2-a]pyrazine-8-carboxamide]",10 to 100 nM,–,–,–,–,–,< 10 nM,< 10 nM,–
"C=C(F)C(=O)N1CCCc2cc(-c3c(-c4ccc(Oc5nccc(C)n5)c(F)c4)c(C(N)=O)c4cnc(C)cn34)c(F)cc21 [Example 98, 6-(7-fluoro-1-(2-fluoroacryloyl)-1,2,3,4-tetrahydroquinolin-6-yl)-7-(3-fluoro-4-((4-methylpyrimidin-2-yl)oxy)phenyl)-3-methylpyrrolo[1,2-a]pyrazine-8-carboxamide]",–,–,100 to 1000 nM,–,100 to 1000 nM,–,–,–,> 1000 nM
"C=C(F)C(=O)N1CCc2c1ccc(-c1c(-c3ccc(Oc4nccc(C)n4)c(F)c3)c(C(N)=O)c3cnc(C)cn13)c2F [Example 99, 6-(4-fluoro-1-(2-fluoroacryloyl)indolin-5-yl)-7-(3-fluoro-4-((4-methylpyrimidin-2-yl)oxy)phenyl)-3-methylpyrrolo[1,2-a]pyrazine-8-carboxamide]",10 to 100 nM,–,–,–,–,–,< 10 nM,< 10 nM,–
"C=CC(=O)N1CC=C(c2c(-c3ccc(Oc4nccc(C)n4)c(F)c3)c(C(N)=O)c3cnc(C)cn23)CC1 [Example 101, 6-(1-acryloyl-1,2,3,6-tetrahydropyridin-4-yl)-7-(3-fluoro-4-((4-methylpyrimidin-2-yl)oxy)phenyl)-3-methylpyrrolo[1,2-a]pyrazine-8-carboxamide]",10 to 100 nM,–,10 to 100 nM,–,10 to 100 nM,–,–,–,–
"C=C(F)C(=O)N1CC2(CC2)c2cc(-c3c(-c4ccc(Oc5nccc(C)n5)c(F)c4)c(C(N)=O)c4cnc(C)cn34)c(F)cc21 [Example 102, 6-(6′-fluoro-1′-(2-fluoroacryloyl)spiro[cyclopropane-1,3′-indolin]-5′-yl)-7-(3-fluoro-4-((4-methylpyrimidin-2-yl)oxy)phenyl)-3-methylpyrrolo[1,2-a]pyrazine-8-carboxamide]",–,–,10 to 100 nM,–,10 to 100 nM,–,–,–,< 10 nM
"C=C(F)C(=O)Nc1ccc(-c2c(-c3ccc(Oc4nccc(C)n4)c(F)c3)c(C(N)=O)c3cc(C4CC4)ncn23)cc1 [Example 105, 3-cyclopropyl-6-(3-fluoro-4-((4-methylpyrimidin-2-yl)oxy)phenyl)-7-(4-(2-fluoroacrylamido)phenyl)pyrrolo[1,2-c]pyrimidine-5-carboxamide]",10 to 100 nM,–,10 to 100 nM,–,–,–,< 10 nM,–,–
"C=C(F)C(=O)Nc1ccc(-c2c(-c3ccc(Oc4nccc(C)n4)c(F)c3)c(C(N)=O)c3cncnn23)cc1 [Example 108, 6-(3-fluoro-4-((4-methylpyrimidin-2-yl)oxy)phenyl)-7-(4-(2-fluoroacrylamido)phenyl)pyrrolo[2,1-f][1,2,4]triazine-5-carboxamide]",–,–,100 to 1000 nM,–,10 to 100 nM,–,–,–,> 1000 nM
